In patent US20230312605A1, “PYRROLO[2,1-F][1,2,4]TRIAZINES AND PREPARATION AND USES THEREOF” (BioSplice Therapeutics, Inc., priority 2021, published 2023):

What follows are compounds tested against recombinant DYRK1A kinase (Homo sapiens (Human), UniProt Q13627) (assay: DYRK1A kinase assay (Ser/Thr 18 peptide Z-lyte FRET assay)). Conditions: recombinant DYRK1A 0.25 µg/mL, ATP 15 µM, Ser/Thr peptide 18 4 µM, one hour at room temperature; table head prints EC50, method says IC50.
Type: biochemical
Method in brief: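 Z-lyte FRET format: 1 h room-temperature reaction of 15 µM ATP, 4 µM Ser/Thr 18 peptide and 0.25 µg/mL recombinant human DYRK1A, in duplicate over 11 compound concentrations up to 10 µM. IC50 was derived by non-linear regression of percent phosphorylation calculated from coumarin/fluorescein emission ratios.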

Row | SMILES | EC50 [nM]
1 | Cc1nc2ccc(-c3ccn4nc(N[C@H]5C[C@@H](O)C5)ncc34)nc2n1CC(F)F [Compound 1720, cis-3-((5-(3-(2,2-Difluoroethyl)-2-methyl-3H-imidazo [4,5-b]pyridin-5-yl)pyrrolo[2,1-f] [1,2,4]triazin-2-yl)amino)cyclobutan-1-ol] | 5
2 | O[C@H]1C[C@@H](Nc2ncc3c(-c4ccc5ncccc5c4)ccn3n2)C1 [Compound 1723, cis-3-((5-(Quinolin-6-yl)pyrrolo[2,1-f][1,2,4]triazin-2-yl)amino)cyclobutan-1-ol] | 4
3 | c1cn2cc(-c3ccn4nc(NC5CC6(CNC6)C5)ncc34)cnc2n1 [Compound 1732, 5-(Imidazo[1,2-a]pyrimidin-6-yl)-N-(2-azaspiro[3.3]heptan-6-yl)pyrrolo[2,1-f][1,2,4]triazin-2-amine] | 13
4 | c1cnc2ccc(-c3ccn4nc(NC5CC6(CNC6)C5)ncc34)cc2c1 [Compound 1747, 5-(Quinolin-6-yl)-N-(2-azaspiro[3.3]heptan-6-yl)pyrrolo[2,1-f][1,2,4]triazin-2-amine] | 3
5 | CC(C)CN1CC2(CC(Nc3ncc4c(-c5cnc6nccn6c5)ccn4n3)C2)C1 [Compound 1756, 5-(Imidazo[1,2-a]pyrimidin-6-yl)-N-(2-isobutyl-2-azaspiro[3.3]heptan-6-yl)pyrrolo [2,1-f][1,2,4]triazin-2-amine] | 18
6 | CC(C)CN1CC2(CC(Nc3ncc4c(-c5ccc6ncccc6c5)ccn4n3)C2)C1 [Compound 1771, N-(2-isobutyl-2-azaspiro[3.3]heptan-6-yl)-5-(quinolin-6-yl)pyrrolo[2,1-f] [1,2,4]triazin-2-amine] | 5
7 | FC(F)(F)O[C@H]1CC[C@@H](Nc2ncc3c(-c4cnc5nccn5c4)ccn3n2)CC1 [Compound 1780, 5-(Imidazo[1,2-a]pyrimidin-6-yl)-N-(cis-4-(trifluoromethoxy)cyclohexyl) pyrrolo[2,1-f][1,2,4]triazin-2-amine] | 7
8 | Cc1nc2ncc(-c3ccn4nc(N[C@H]5CC[C@@H](OC(F)(F)F)CC5)ncc34)cc2n1CC(F)F [Compound 1786, 5-(1-(2,2-Difluoroethyl)-2-methyl-1H-imidazo[4,5-b]pyridin-6-yl)-N-(cis-4-(trifluoromethoxy)cyclohexyl)pyrrolo[2,1-f][1,2,4]triazin-2-amine] | 5
9 | Cc1nc2ccc(-c3ccn4nc(N[C@H]5CC[C@@H](OC(F)(F)F)CC5)ncc34)nc2n1CC(F)F [Compound 1792, 5-(3-(2,2-Difluoroethyl)-2-methyl-3H-imidazo[4,5-b]pyridin-5-yl)-N-(cis-4-(trifluoromethoxy)cyclohexyl)pyrrolo[2,1-f][1,2,4]triazin-2-amine] | 26
10 | FC(F)(F)O[C@H]1CC[C@@H](Nc2ncc3c(-c4cnc5ncccc5c4)ccn3n2)CC1 [Compound 1798, 5-(1,8-Naphthyridin-3-yl)-N-(cis-4-(trifluoromethoxy)cyclohexyl)pyrrolo [2,1-f][1,2,4]triazin-2-amine] | 4
11 | [2H]C([2H])([2H])O[C@H]1CC[C@@H](Nc2ncc3c(-c4cnc5nccn5c4)ccn3n2)CC1 [Compound 1802, 5-(Imidazo[1,2-a]pyrimidin-6-yl)-N-(cis-4-(methoxy-ds)cyclohexyl)pyrrolo [2,1-f][1,2,4] triazin-2-amine] | 5
12 | [2H]C([2H])([2H])O[C@H]1CC[C@@H](Nc2ncc3c(-c4ccc5nc(C)n(CC(F)F)c5n4)ccn3n2)CC1 [Compound 1803, 5-(3-(2,2-Difluoroethyl)-2-methyl-3H-imidazo[4,5-b]pyridin-5-yl)-N-(cis-4-(methoxy-d3)cyclohexyl)pyrrolo[2,1-f][1,2,4]triazin-2-amine] | 3
13 | Cc1nc2ncc(-c3ccn4nc(N[C@H]5C[C@@](C)(O)C5)ncc34)cc2n1CC(F)F [Compound 1813, cis-3-((5-(1-(2,2-Difluoroethyl)-2-methyl-1H-imidazo [4,5-b]pyridin-6-yl)pyrrolo[2,1-f] [1,2,4]triazin-2-yl)amino)-1-methylcyclobutan-1-ol] | 4

Continued, values first:

Row | EC50 [nM] | SMILES
14 | 3 | Cc1nc2ccc(-c3ccn4nc(N[C@H]5C[C@@](C)(O)C5)ncc34)nc2n1CC(F)F [Compound 1819, cis-3-((5-(3-(2,2-Difluoroethyl)-2-methyl-3H-imidazo [4,5-b]pyridin-5-yl)pyrrolo[2,1-f] [1,2,4]triazin-2-yl)amino)-1-methylcyclobutan-1-ol]
15 | 5 | C[C@]1(O)C[C@@H](Nc2ncc3c(-c4cnc5ncccc5c4)ccn3n2)C1 [Compound 1825, cis-3-((5-(1,8-Naphthyridin-3-yl)pyrrolo[2,1-f][1,2,4]triazin-2-yl)amino)-1-methylcyclobutan-1-ol]
16 | 10 | C[C@]1(O)CC[C@H](Nc2ncc3c(-c4ccc5nccn5c4)ccn3n2)CC1 [Compound 1828, trans-4-((5-(Imidazo[1,2-a]pyridin-6-yl)pyrrolo[2,1-f][l,2,4]triazin-2-yl)amino) -1-methylcyclohexan-1-ol]
17 | 33 | Cc1nc2ccc(-c3ccn4nc(N[C@H]5CC[C@@](C)(O)CC5)ncc34)nc2n1CC(C)C [Compound 1829, cis-4-((5-(3-Isobutyl-2-methyl-3H-imidazo[4,5-b]pyridin-5-yl)pyrrolo[2,1-f] [1,2,4]triazin-2-yl)amino)-1-methylcyclohexan-1-ol]
18 | 16 | Cc1nc2ccc(-c3ccn4nc(N[C@H](C)CO)ncc34)nc2n1CC(F)F [Compound 1830, (R)-2-((5-(3-(2,2-Difluoroethyl)-2-methyl-3H-imidazo[4,5-b]pyridin-5-yl)pyrrolo[2,1-f][1,2,4]triazin-2-yl)amino)propan-1-ol]
19 | 7 | Cc1nc2ccc(-c3ccn4nc(NC[C@@H](C)O)ncc34)nc2n1CC(F)F [Compound 1831, (R)-1-((5-(3-(2,2-Difluoroethyl)-2-methyl-3H-imidazo[4,5-b]pyridin-5-yl)pyrrolo [2,1-f] [1,2,4]triazin-2-yl)amino)propan-2-ol]
20 | 6 | Cc1nc2ccc(-c3ccn4nc(NC[C@H](C)O)ncc34)nc2n1CC(F)F [Compound 1832, (S)-1-((5-(3-(2,2-Difluoroethyl)-2-methyl-3H-imidazo[4,5-b]pyridin-5-yl)pyrrolo [2,1-f] [1,2,4]triazin-2-yl)amino)propan-2-ol]
21 | 8 | Cc1nc2ccc(-c3ccn4nc(NCC(C)(C)O)ncc34)nc2n1CC(F)F [Compound 1833, 1-((5-(3-(2,2-Difluoroethyl)-2-methyl-3H-imidazo[4,5-b]pyridin-5-yl)pyrrolo[2,1-f][1,2,4]triazin-2-yl)amino)-2-methylpropan-2-ol]
22 | 3 | Cc1nc2ccc(-c3ccn4nc(N[C@H]5C[C@@H](CO)C5)ncc34)nc2n1CC(F)F [Compound 1834, (cis-3-((5-(3-(2,2-Difluoroethyl)-2-methyl-3H-imidazo[4,5-b]pyridin-5-yl)pyrrolo[2,1-f][1,2,4]triazin-2-yl)amino)cyclobutyl)methanol]
23 | 3 | Cc1nc2ccc(-c3ccn4nc(N[C@H]5C[C@](C)(O)C5)ncc34)nc2n1CC(F)F [Compound 1835, trans-3-((5-(3-(2,2-Difluoroethyl)-2-methyl-3H-imidazo[4,5-b]pyridin-5-yl)pyrrolo[2,1-f][1,2,4]triazin-2-yl)amino)-1-methylcyclobutan-1-ol]
